Reference: patent publication US7563592B2, “Alizarin-based chromogenic substrates, their uses and composition containing same” (Biomerieux, S.A., priority 1999, dated 2009)

Columns and labels:
[1] = system: Serratia spp.; assay: β-galactosidase detection on semi-solid medium, clinical and environmental strains (Example 2); format: cell-based; conditions: 50 mg/l + iron citrate 500 mg/l; 18 hours; 14 strains tested
[2] = system: Shigella flexneri; assay: as above; format: cell-based; conditions: 50 mg/l + iron citrate 500 mg/l; 18 hours; 2 strains tested
[3] = system: Listeria innocua 029; assay: Effect of metal salts on the color of the marker part, substrate 50 mg/l in Columbia medium (Example 3); format: cell-based
Procedure: (§1) To the Columbia-base medium (46.37 g/l) supplemented with Alizarin-2-β-D-glucoside (50 mg/l), were added either Manganese chloride, Ammoniacal iron citrate, Tin chloride, or Aluminum sulfate, all at a concentration of 50 mg/l. A control medium with no metal salts was tested in parallel. After autoclaving, these various media were all used to prepare Petri dishes (20 ml per plate). […] It should be pointed out that intensity readings are in arbitrary units. The only purpose of giving these values is to make it possible to compare one strain with another in this respect. The same is true for the examples which follow. Similarly, the strains tested were taken from the Applicant's collection and the number given represents an internal reference specific to this collection. The same internal numbering system is also used in some of the examples given later on.

[4] = system: Listeria ivanovii 018; assay: as above; format: cell-based
Procedure: as §1

[5] = system: Listeria monocytogenes 023; assay: as above; format: cell-based
Procedure: as §1

[6] = system: Listeria monocytogenes 079; assay: as above; format: cell-based
Procedure: as §1

[7] = system: Listeria monocytogenes 081; assay: as above; format: cell-based
Procedure: as §1

[8] = system: Listeria welshimeri 023; assay: as above; format: cell-based
Procedure: as §1

[9] = system: Citrobacter koseri 059; assay: Comparison of glucoside substrates in semi-solid Columbia medium (Example 7); format: cell-based; conditions: 0.05 g/l + iron citrate 0.05 g/l
[10] = system: Bacillus thuringiensis 072; assay: β-glucosidase detection in API strip wells (Example 6); conditions: 0.12 g/l + iron citrate 0.05 g/l; 24 H
[11] = Manganese chloride 50 mg/l, 24 H
[12] = Manganese chloride 50 mg/l, 48 H

## O=C1c2ccccc2C(=O)c2c1ccc(O[C@@H]1O[C@H](CO)[C@H](O)[C@H](O)[C@H]1O)c2O [Alizarin-2-β-D-galactoside]
[1]
  percentage of positive strains: 86%
[2]
  percentage of positive strains: 0%

## O=C1c2ccccc2C(=O)c2c1ccc(O[C@@H]1O[C@H](CO)[C@@H](O)[C@H](O)[C@H]1O)c2O [Alizarin-2-β-D-glucoside]
[3]; Aluminum sulfate 50 mg/l, 24 H
  Color: red
  Intensity: 4 arbitrary units
[3]; Aluminum sulfate 50 mg/l, 48 H
  Color: red
  Intensity: 4 arbitrary units
[3]; Control, no metal salt, 24 H
  Color: purple
  Intensity: 2 arbitrary units
[3]; Control, no metal salt, 48 H
  Color: purple
  Intensity: 2.3 arbitrary units
[3]; Iron citrate 50 mg/l, 24 H
  Color: purple
  Intensity: 4 arbitrary units
[3]; Iron citrate 50 mg/l, 48 H
  Color: purple
  Intensity: 4 arbitrary units
[3]; [11]
  Color: purple
  Intensity: 2.3 arbitrary units
[3]; [12]
  Color: purple
  Intensity: 2.3 arbitrary units
[3]; Tin chloride 50 mg/l, 24 H
  Color: orange
  Intensity: 3 arbitrary units
[3]; Tin chloride 50 mg/l, 48 H
  Color: orange
  Intensity: 4 arbitrary units
[4]; Aluminum sulfate 50 mg/l, 24 H
  Color: red
  Intensity: 4 arbitrary units
[4]; Aluminum sulfate 50 mg/l, 48 H
  Color: red
  Intensity: 4 arbitrary units
[4]; Control, no metal salt, 24 H
  Color: purple
  Intensity: 2.3 arbitrary units
[4]; Control, no metal salt, 48 H
  Color: purple
  Intensity: 2.3 arbitrary units
[4]; Iron citrate 50 mg/l, 24 H
  Color: purple
  Intensity: 4 arbitrary units
[4]; Iron citrate 50 mg/l, 48 H
  Color: purple
  Intensity: 4 arbitrary units
[4]; [11]
  Color: purple
  Intensity: 2.7 arbitrary units
[4]; [12]
  Color: purple
  Intensity: 2.7 arbitrary units
[4]; Tin chloride 50 mg/l, 24 H
  Color: orange
  Intensity: 3 arbitrary units
[4]; Tin chloride 50 mg/l, 48 H
  Color: orange
  Intensity: 4 arbitrary units
[5]; Aluminum sulfate 50 mg/l, 24 H
  Color: red
  Intensity: 4 arbitrary units
[5]; Aluminum sulfate 50 mg/l, 48 H
  Color: red
  Intensity: 4 arbitrary units
[5]; Control, no metal salt, 24 H
  Color: purple
  Intensity: 2 arbitrary units
[5]; Control, no metal salt, 48 H
  Color: purple
  Intensity: 2 arbitrary units
[5]; Iron citrate 50 mg/l, 24 H
  Color: purple
  Intensity: 4 arbitrary units
[5]; Iron citrate 50 mg/l, 48 H
  Color: purple
  Intensity: 4 arbitrary units
[5]; [11]
  Color: purple
  Intensity: 2.7 arbitrary units
[5]; [12]
  Color: purple
  Intensity: 2.7 arbitrary units
[5]; Tin chloride 50 mg/l, 24 H
  Color: orange
  Intensity: 3 arbitrary units
[5]; Tin chloride 50 mg/l, 48 H
  Color: orange
  Intensity: 4 arbitrary units
[6]; Aluminum sulfate 50 mg/l, 24 H
  Color: red
  Intensity: 4 arbitrary units
[6]; Aluminum sulfate 50 mg/l, 48 H
  Color: red
  Intensity: 4 arbitrary units
[6]; Control, no metal salt, 24 H
  Color: purple
  Intensity: 2.3 arbitrary units
[6]; Control, no metal salt, 48 H
  Color: purple
  Intensity: 2.3 arbitrary units
[6]; Iron citrate 50 mg/l, 24 H
  Color: purple
  Intensity: 4 arbitrary units
[6]; Iron citrate 50 mg/l, 48 H
  Color: purple
  Intensity: 4 arbitrary units
[6]; [11]
  Color: purple
  Intensity: 2.7 arbitrary units
[6]; [12]
  Color: purple
  Intensity: 2.7 arbitrary units
[6]; Tin chloride 50 mg/l, 24 H
  Color: orange
  Intensity: 3.5 arbitrary units
[6]; Tin chloride 50 mg/l, 48 H
  Color: orange
  Intensity: 4 arbitrary units
[7]; Aluminum sulfate 50 mg/l, 24 H
  Color: red
  Intensity: 4 arbitrary units
[7]; Aluminum sulfate 50 mg/l, 48 H
  Color: red
  Intensity: 4 arbitrary units
[7]; Control, no metal salt, 24 H
  Color: purple
  Intensity: 2.3 arbitrary units
[7]; Control, no metal salt, 48 H
  Color: purple
  Intensity: 2.3 arbitrary units
[7]; Iron citrate 50 mg/l, 24 H
  Color: purple
  Intensity: 4 arbitrary units
[7]; Iron citrate 50 mg/l, 48 H
  Color: purple
  Intensity: 4 arbitrary units
[7]; [11]
  Color: purple
  Intensity: 2.3 arbitrary units
[7]; [12]
  Color: purple
  Intensity: 2.7 arbitrary units
[7]; Tin chloride 50 mg/l, 24 H
  Color: orange
  Intensity: 3 arbitrary units
[7]; Tin chloride 50 mg/l, 48 H
  Color: orange
  Intensity: 4 arbitrary units
[8]; Aluminum sulfate 50 mg/l, 24 H
  Color: red
  Intensity: 4 arbitrary units
[8]; Aluminum sulfate 50 mg/l, 48 H
  Color: red
  Intensity: 4 arbitrary units
[8]; Control, no metal salt, 24 H
  Color: purple
  Intensity: 2.3 arbitrary units
[8]; Control, no metal salt, 48 H
  Color: purple
  Intensity: 2.3 arbitrary units
[8]; Iron citrate 50 mg/l, 24 H
  Color: purple
  Intensity: 4 arbitrary units
[8]; Iron citrate 50 mg/l, 48 H
  Color: purple
  Intensity: 4 arbitrary units
[8]; [11]
  Color: purple
  Intensity: 2.3 arbitrary units
[8]; [12]
  Color: purple
  Intensity: 2.7 arbitrary units
[8]; Tin chloride 50 mg/l, 24 H
  Color: orange
  Intensity: 3 arbitrary units
[8]; Tin chloride 50 mg/l, 48 H
  Color: orange
  Intensity: 4 arbitrary units
[9]; 18 H
  Color: Mauve
  Intensity: 2 arbitrary units
[9]; 24 H
  Color: Mauve
  Intensity: 3 arbitrary units
[9]; 48 H
  Color: Mauve
  Intensity: 3.5 arbitrary units
[10]
  Color observed: Purple
